Data published in patent US9975878B2, “Substituted triazine BMI-1 inhibitors” (PTC Therapeutics, Inc., priority 2013, dated 2018).

System: Bmi-1 protein
Assay: Sandwich ELISA Assay: Bmi-1 protein level in HT-1080 cells treated with test compounds
Type: cell-based
In short: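 HT-1080 cells exposed to compounds (final DMSO 0.5%) for 40-48 h at 37° C, 5% CO2, then lysed. Bmi-1 quantified by sandwich ELISA (mouse anti-Bmi-1 capture, rabbit anti-Bmi-1 detection, HRP anti-rabbit, TMB), read at OD450 with OD570 reference, against recombinant GST-Bmi-1 standard curve (0-8000 pg/mL).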

Row | SMILES | EC50
1 | Nc1nc(Nc2ccc(C(F)(F)F)c(F)c2)nc(-c2c(C(F)(F)F)nc3ccccn23)n1 [Cpd 71, N-[3-fluoro-4-(trifluoromethyl)phenyl]-6-[2-(trifluoromethyl)imidazo[1,2-a]pyridin-3-yl]-1,3,5-triazine-2,4-diamine] | 100 to 3000 nM
2 | Cc1nc2ccccc2n1-c1nc(N)nc(Nc2ccc(N3CCOCC3)cc2)n1 [Cpd 135, 6-(2-methyl-1H-benzimidazol-1-yl)-N-[4-(morpholin-4-yl)phenyl]-1,3,5-triazine-2,4-diamine] | 100 to 3000 nM
3 | Cc1nc2c(F)cccc2n1-c1nc(N)nc(Nc2ccc(C(F)(F)F)cc2)n1 [Cpd 95, 6-(4-fluoro-2-methyl-1H-benzimidazol-1-yl)-N-[4-(trifluoromethyl)phenyl]-1,3,5-triazine-2,4-diamine] | 100 to 3000 nM
4 | Cc1nc2ccccc2n1-c1nc(NCCO)nc(Nc2ccc3c(c2)OCO3)n1 [Cpd 19, 2-{[4-(1,3-benzodioxol-5-ylamino)-6-(2-methyl-1H-benzimidazol-1-yl)-1,3,5-triazin-2-yl]amino}ethanol] | 100 to 3000 nM
5 | CCc1nc2ccc(F)cc2n1-c1cnnc(Nc2ccc(C(F)(F)F)cc2)n1 [Cpd 125, 5-(2-ethyl-6-fluoro-1H-benzimidazol-1-yl)-N-[4-(trifluoromethyl)phenyl]-1,2,4-triazin-3-amine] | 100 to 3000 nM
6 | Cc1nc2cc(F)ccc2n1-c1nc(N)nc(Nc2ccc(OC(F)F)c(F)c2)n1 [Cpd 54, N-[4-(difluoromethoxy)-3-fluorophenyl]-6-(5-fluoro-2-methyl-1H-benzimidazol-1-yl)-1,3,5-triazine-2,4-diamine] | 100 to 3000 nM
7 | Cc1nc2ncc(Br)cc2n1-c1nc(NCCO)nc(Nc2ccc(C(F)(F)F)cc2)n1 [Cpd 34, 2-{[4-(6-bromo-2-methyl-1H-imidazo[4,5-b]pyridin-1-yl)-6-{[4-(trifluoromethyl)phenyl]amino}-1,3,5-triazin-2-yl]amino}ethanol] | 100 to 3000 nM
8 | Cc1nc2ncccc2n1-c1nc(N)nc(Nc2ccc(OC(F)F)cc2)n1 [Cpd 23, N-[4-(difluoromethoxy)phenyl]-6-(2-methyl-1H-imidazo[4,5-b]pyridin-1-yl)-1,3,5-triazine-2,4-diamine] | 100 to 3000 nM
9 | CCc1nc2c(F)cccc2n1-c1nc(N)nc(Nc2ccc(OC(F)F)c(F)c2)n1 [Cpd 70, N-[4-(difluoromethoxy)-3-fluorophenyl]-6-(2-ethyl-4-fluoro-1H-benzimidazol-1-yl)-1,3,5-triazine-2,4-diamine] | 10 to 100 nM
10 | Cc1nc2ccccc2n1-c1nc(N)nc(Nc2ccc(C(F)(F)F)cc2)n1 [Cpd 2, 6-(2-methyl-1H-benzimidazol-1-yl)-N-[4-(trifluoromethyl)phenyl]-1,3,5-triazine-2,4-diamine] | 10 to 100 nM
11 | CCc1nn2ccccc2c1-c1nc(N)nc(Nc2ccc(OC(F)F)cc2)n1 [Cpd 129, N-[4-(difluoromethoxy)phenyl]-6-(2-ethylpyrazolo[1,5-a]pyridin-3-yl)-1,3,5-triazine-2,4-diamine] | 100 to 3000 nM
12 | Cc1nc2ccccc2n1-c1nc(N)nc(Nc2ccc(OC(F)F)c(F)c2)n1 [Cpd 6, N-[4-(difluoromethoxy)-3-fluorophenyl]-6-(2-methyl-1H-benzimidazol-1-yl)-1,3,5-triazine-2,4-diamine] | 10 to 100 nM
13 | Cc1nc2ncc(Cl)cc2n1-c1nc(NCCO)nc(Nc2ccc(C(F)(F)F)cc2)n1 [Cpd 35, 2-{[4-(6-chloro-2-methyl-1H-imidazo[4,5-b]pyridin-1-yl)-6-{[4-(trifluoromethyl)phenyl]amino}-1,3,5-triazin-2-yl]amino}ethanol] | 100 to 3000 nM
14 | Cc1nc2c(F)cc(F)cc2n1-c1nc(N)nc(Nc2ccc(Br)cc2)n1 [Cpd 208, N-(4-bromophenyl)-6-(4,6-difluoro-2-methyl-1H-benzimidazol-1-yl)-1,3,5-triazine-2,4-diamine] | 10 to 100 nM
15 | Nc1nc(Nc2ccc(OC(F)F)c(F)c2)nc(-n2c(C(F)F)nc3cc(F)c(F)cc32)n1 [Cpd 117, N-[4-(difluoromethoxy)-3-fluorophenyl]-6-[2-(difluoromethyl)-5,6-difluoro-1H-benzimidazol-1-yl]-1,3,5-triazine-2,4-diamine] | 100 to 3000 nM
16 | Cc1nc2ccccc2n1-c1nc(N)nc(Nc2cc3ccccc3cn2)n1 [Cpd 22, N-(isoquinolin-3-yl)-6-(2-methyl-1H-benzimidazol-1-yl)-1,3,5-triazine-2,4-diamine] | 10 to 100 nM
17 | Fc1ccc2nc(C3CC3)n(-c3ncnc(Nc4ccc(C(F)(F)F)cc4)n3)c2c1 [Cpd 76, 4-(2-cyclopropyl-6-fluoro-1H-benzimidazol-1-yl)-N-[4-(trifluoromethyl)phenyl]-1,3,5-triazin-2-amine] | 100 to 3000 nM
18 | CCc1nc2ccccc2n1-c1nc(Nc2ccc(C(F)(F)F)cc2)c[n+]([O-])n1 [Cpd 139, 3-(2-ethyl-1H-benzimidazol-1-yl)-N-[4-(trifluoromethyl)phenyl]-1,2,4-triazin-5-amine 1-oxide] | 10 to 100 nM
19 | Cc1nc2cc(F)c(F)cc2n1-c1nc(N)nc(Nc2ccc(OC(F)F)c(F)c2)n1 [Cpd 10, N-[4-(difluoromethoxy)-3-fluorophenyl]-6-(5,6-difluoro-2-methyl-1H-benzimidazol-1-yl)-1,3,5-triazine-2,4-diamine] | 100 to 3000 nM
20 | Cc1nc2ccccc2n1-c1cnnc(Nc2ccc(C(F)(F)F)cc2)n1 [Cpd 112, 5-(2-methyl-1H-benzimidazol-1-yl)-N-[4-(trifluoromethyl)phenyl]-1,2,4-triazin-3-amine] | 100 to 3000 nM
21 | Cc1nc2ccccc2n1-c1nc(NCCO)nc(Nc2cnc3ccccc3c2)n1 [Cpd 21, 2-{[4-(2-methyl-1H-benzimidazol-1-yl)-6-(quinolin-3-ylamino)-1,3,5-triazin-2-yl]amino}ethanol] | 10 to 100 nM
22 | Cc1nc2ccccc2n1-c1nc(N)nc(Nc2ccc(Cl)cc2)n1 [Cpd 150, N-(4-chlorophenyl)-6-(2-methyl-1H-benzimidazol-1-yl)-1,3,5-triazine-2,4-diamine] | 10 to 100 nM
23 | Cc1nc2ccccc2n1-c1nc(N)nc(Nc2ccc(OC(F)(F)F)cc2)n1 [Cpd 3, 6-(2-methyl-1H-benzimidazol-1-yl)-N-[4-(trifluoromethoxy)phenyl]-1,3,5-triazine-2,4-diamine] | 100 to 3000 nM

The next lines start with the values.

Row | EC50 | SMILES
24 | 1 to 10 nM | Cc1ccc(Nc2nc(N)nc(-n3c(C)nc4ccc(F)cc43)n2)cc1 [Cpd 165, 6-(6-fluoro-2-methyl-1H-benzimidazol-1-yl)-N-(4-methylphenyl)-1,3,5-triazine-2,4-diamine]
25 | 10 to 100 nM | CCc1nc2ccc(F)cc2n1-c1nc(N)nc(Nc2ccc(OC(F)F)c(F)c2)n1 [Cpd 57, N-[4-(difluoromethoxy)-3-fluorophenyl]-6-(2-ethyl-6-fluoro-1H-benzimidazol-1-yl)-1,3,5-triazine-2,4-diamine]
26 | 10 to 100 nM | CSc1ccc(Nc2nc(N)nc(-n3c(C)nc4ccc(F)cc43)n2)cc1 [Cpd 226, 6-(6-fluoro-2-methyl-1H-benzimidazol-1-yl)-N-[4-(methylsulfanyl)phenyl]-1,3,5-triazine-2,4-diamine]
27 | 10 to 100 nM | CCc1nc2c(F)cc(F)cc2n1-c1nc(N)nc(Nc2ccc(OC(F)F)c(F)c2)n1 [Cpd 50, N-[4-(difluoromethoxy)-3-fluorophenyl]-6-(2-ethyl-4,6-difluoro-1H-benzimidazol-1-yl)-1,3,5-triazine-2,4-diamine]
28 | 1 to 10 nM | CCc1nc2c(F)cc(F)cc2n1-c1nc(N)nc(Nc2ccc(OC)cc2)n1 [Cpd 188, 6-(2-ethyl-4,6-difluoro-1H-benzimidazol-1-yl)-N-(4-methoxyphenyl)-1,3,5-triazine-2,4-diamine]
29 | 1 to 10 nM | CCc1nc2ccccc2n1-c1nc(N)nc(Nc2ccc(Br)cc2)n1 [Cpd 207, N-(4-bromophenyl)-6-(2-ethyl-1H-benzimidazol-1-yl)-1,3,5-triazine-2,4-diamine]
30 | 10 to 100 nM | Nc1nc(Nc2ccc(Cl)cc2)nc(-n2c(C3CC3)nc3c(F)cccc32)n1 [Cpd 184, N-(4-chlorophenyl)-6-(2-cyclopropyl-4-fluoro-1H-benzimidazol-1-yl)-1,3,5-triazine-2,4-diamine]
31 | 10 to 100 nM | Nc1nc(Nc2ccc(OC(F)F)c(F)c2)nc(-n2c(C3CC3)nc3ccccc32)n1 [Cpd 44, 6-(2-cyclopropyl-1H-benzimidazol-1-yl)-N-[4-(difluoromethoxy)-3-fluorophenyl]-1,3,5-triazine-2,4-diamine]
32 | 10 to 100 nM | CCc1nc2ccccc2n1-c1nncc(Nc2ccc(C(F)(F)F)cc2)n1 [Cpd 98, 3-(2-ethyl-1H-benzimidazol-1-yl)-N-[4-(trifluoromethyl)phenyl]-1,2,4-triazin-5-amine]
33 | 10 to 100 nM | Cc1nc2ccc(F)cc2n1-c1nc(N)nc(Nc2ccc(C(F)(F)F)nc2)n1 [Cpd 53, 6-(6-fluoro-2-methyl-1H-benzimidazol-1-yl)-N-[6-(trifluoromethyl)pyridin-3-yl]-1,3,5-triazine-2,4-diamine]
34 | 1 to 10 nM | Cc1nc2ccccc2n1-c1nc(N)nc(Nc2ccc3[nH]ccc3c2)n1 [Cpd 7, N-(1H-indol-5-yl)-6-(2-methyl-1H-benzimidazol-1-yl)-1,3,5-triazine-2,4-diamine]
35 | 10 to 100 nM | Cc1nc2c(F)cccc2n1-c1nc(N)nc(Nc2ccc(OC(F)F)cc2)n1 [Cpd 96, N-[4-(difluoromethoxy)phenyl]-6-(4-fluoro-2-methyl-1H-benzimidazol-1-yl)-1,3,5-triazine-2,4-diamine]
36 | 1 to 10 nM | CCc1nc2cc(F)ccc2n1-c1nc(N)nc(Nc2ccc(OC)cc2)n1 [Cpd 173, 6-(2-ethyl-5-fluoro-1H-benzimidazol-1-yl)-N-(4-methoxyphenyl)-1,3,5-triazine-2,4-diamine]
37 | 1 to 10 nM | Cc1nc2ccccc2n1-c1nc(N)nc(Nc2ccc3ncccc3c2)n1 [Cpd 14, 6-(2-methyl-1H-benzimidazol-1-yl)-N-(quinolin-6-yl)-1,3,5-triazine-2,4-diamine]
38 | 1 to 10 nM | Cc1nc2ccccc2n1-c1nc(N)nc(Nc2ccc(Br)cc2)n1 [Cpd 206, N-(4-bromophenyl)-6-(2-methyl-1H-benzimidazol-1-yl)-1,3,5-triazine-2,4-diamine]
